# Results taken from patent US20110263423A1, “Plant Health Composition” (BASF SE, priority 2008, published 2011).
# Key:
# Format in all cases: in vivo
# [1] = system: spring wheat (cv. Passat); experiment: Spring wheat pot trial, optimal water supply (Example 1)
# Description: Mitcherlich pots of known weight were filled with 5.5 kg of sandy dry soil (pH 6.8) and fertilized (P, K and Mg) to optimal growing conditions. The culture was spring wheat (cv. Passat); 12 plants per pot. The experiment was conducted with 6 replications in a vegetation hall. Experiments were carried out under semi controlled conditions at very low disease-pressure with insignificant infection rates, protected from any undesired rain or water impact. The water consumption of each pot was calculated on the basis of the recorded measurements of the weight of the pots prior to each irrigation event up to the defined set point.
# (§1) Nitrogen fertilizer (totally 1.75 g N/pot) was added in equal amounts at 3 stages to allow optimal growth conditions throughout the life cycle. All plants/pots were grown at optimal water supply by watering 2-3 times a day to 60% of the water holding capacity of the soil.
# Compound Ia (62.5 g/L, 2 L in 400 L water/ha) was applied at growth stage 39/49 (BBCH scale), which is an EC formulation of compound Ia. Control plants were not treated.
# Plant Height, as an indicator of plant vigor, was measured after heading. At maturity of the plants the grain, as an indicator of yield, was harvested and uniformly dried to 5% moisture content. Straw yield, as an another indicator of plant yield, was also determined and the number of halms with ear per pot was counted at maturity. Number of grains per pot was counted after harvest. Thousand Grain Weight (TGW), as yet another indicator of plant yield, was calculated based on grain yield per pot and number of grains per pot.
# [2] = system: spring wheat (cv. Passat); experiment: Spring wheat pot trial, severe drought stress (Example 2)
# Description: Spring wheat (cv. Passat) was cultivated in Mitcherlich pots as described above in example 1. The experiment was conducted with 6 replications in a vegetation hall. Experiments were carried out under semi controlled conditions at very low disease-pressure with insignificant infection rates, protected from any undesired rain or water impact. The water consumption of each pot was calculated on the basis of the recorded measurements of the weight of the pots prior to each irrigation event up to the defined set point.
# as §1, with “soil until growth stage 55 (BBCH). Then, pots were only watered to 60% of the maximum water holding capacity of the soil after clear water stress symptoms on the plants were visible to apply severe drought stress.” for “soil.”
# Compound Ia (62.5 g/l, 2 L in 400 L water/ha) was applied at growth stage 39/49 (BBCH scale), which is an EC formulation of compound Ia. Control plants were not treated.
# After ripening of the plants, the grain was harvested and uniformly dried to 5% moisture content. Grain yield per pot, grain yield per ear, number of grains per ear and number of grains per pot were determined as indicators of plant vigor and plant yield. The relation of grain yield to straw added to the grain yield was used to calculate the harvest index.
# Maize (Pioneer 34-N-45) = experiment: Maize field trial, mixture with epoxiconazol, Colby synergism (Example 6); settings: 50 g a.i./ha of each compound
# Description: Maize was grown in 2008 in a field trial at the BASF experimental station in Dinuba, 10181 Avenue 416, Calif., U.S.A. The variety Pioneer 34-N-45 was planted at a seeding rate of 35.000 plants/ha. The trial was setup as a randomized bloc design with 5 replications, each. Plot size was 43 m^2.
# The maize plants were either untreted, treated with epoxiconazol (A3), with compound Ia, and with a mixture comprising compound Ia and epoxiconazol. Epoxiconazol was applied as the commercial formulation OPUS™ (125 g a.i./L, SC formulation) at a dose rate of 0.4 L/ha (50 g a.i./ha). Compound Ia was used as an EC formulation (62.5 g a.i./L) with a dose rate of 0.8 L per hectar (50 g a.i./ha). Epoxiconazol was applied together with compound Ia (as a mixture) using a co-formulation of both compounds (EC formulation, 62.5 g a.i./L each) with a product rate of 0.8 L/ha. The formulation was applied in a total spray volume of 300 L/ha. Compound Ia was sprayed at growth stage 51/55 (BBCH) with a tractor mounted spray boom with VS11003 spray nozzles at 3 bar spray pressure.
# No disease symptoms were visible at the application time and no symptoms were detected at later stages.
# At maturity the grain was harvested and the grain yield per plot, as an indicator of plant yield, was determined (kg/plot). Finally, the grain yield per hectare was calculated (dt/ha).
# The efficacy was calculated as % increase of the grain yield (dt/ha) by each treatment compared to the untreated control.
# The expected efficacies of the combinations of the active compounds were estimated using Colby's formula (Colby, S. R., Calculating synergistic and antagonistic responses of herbicide combinations, Weeds, 15, pp. 20-22, 1967) and compared with the observed efficacies.
# E=x+y−x·y/100 Colby's formula: • E expected efficacy, expressed in % of the untreated control, when using the mixture of the active compounds A and B at the concentrations a and b • x efficacy, expressed in % of the untreated control, when using the active ingredient A at the concentration a • y efficacy, expressed in % of the untreated control, when using the active ingredient B at the concentration b
# [3] = severe drought stress from BBCH 55, 2 L/ha EC at BBCH 39/49
structure (smiles),measurement,setting,value
"Cn1cc(C(=O)Nc2ccccc2-c2cc(F)c(F)c(F)c2)c(C(F)F)n1 [Compound Ia, N-(3′,4′,5′-trifluorobiphenyl-2-yl)-3-difluoromethyl-1-methyl-1H-pyrazole-4-carboxamide]","Grain yield/pot, change vs untreated control",[1]; 2 L/ha EC at BBCH 39/49,(+6%)
same,"Number of halms with ear/pot, change vs untreated control",[1]; 2 L/ha EC at BBCH 39/49,(+16%)
same,"Plant height, change vs untreated control",[1]; 2 L/ha EC at BBCH 39/49,(+2%)
same,Straw yield,[1]; 2 L/ha EC at BBCH 39/49,70.0 g/pot
same,"Straw yield, change vs untreated control",[1]; 2 L/ha EC at BBCH 39/49,(+6%)
same,TGW (Thousand Grain Weight),[1]; 2 L/ha EC at BBCH 39/49,32.0 g
same,"TGW, change vs untreated control",[1]; 2 L/ha EC at BBCH 39/49,(+2%)
same,Number of halms with ear/pot,"[1]; 2 L/ha EC at BBCH 39/49, at maturity",37.5
same,Grain yield/pot,"[1]; 2 L/ha EC at BBCH 39/49, grain dried to 5% moisture",74.2 g/pot
same,Plant height,"[1]; EC 62.5 g/L, 2 L in 400 L water/ha at BBCH 39/49, measured after heading",76.2 cm
same,"Harvest index, change vs untreated control",[2]; severe drought stress,(+3%)
same,"Number of grains per ear, change vs untreated control",[2]; severe drought stress,(+3%)
same,"Single ear grain yield, change vs untreated control",[2]; severe drought stress,(+3%)
same,Harvest index (grain yield g/grain + straw yield g),[2]; [3],0.42
same,Number of grains per ear,[2]; [3],49.9
same,Single ear grain yield,[2]; [3],1.31 g/ear
same,Observed efficacy (% increase of grain yield vs untreated control),Maize (Pioneer 34-N-45),0.4%
same,Grain yield,Maize (Pioneer 34-N-45); BBCH 51/55,154.9 dt/ha
